In patent US10034861B2 (priority 2016, dated 2018):
Read-outs that look alike come from different tables or passages of the source.

Tests used:
Type in all cases: biochemical
PDE1B = PDE1B (Homo sapiens (Human), UniProt Q01064); test: PDE1 inhibition assay (PDE1B); conditions: 15 nM tritium labelled cAMP, 1 hr at room temperature, SPA beads
From the text: (§1) Table 1 lists the IC50 value for inhibition of PDE1 by the compounds of the invention. […] PDE1 assays are described in the Experimental Section.

PDE1A = PDE1A (Homo sapiens (Human), UniProt P54750); test: biochemical
PDE1A, sequence (P54750 whole entry): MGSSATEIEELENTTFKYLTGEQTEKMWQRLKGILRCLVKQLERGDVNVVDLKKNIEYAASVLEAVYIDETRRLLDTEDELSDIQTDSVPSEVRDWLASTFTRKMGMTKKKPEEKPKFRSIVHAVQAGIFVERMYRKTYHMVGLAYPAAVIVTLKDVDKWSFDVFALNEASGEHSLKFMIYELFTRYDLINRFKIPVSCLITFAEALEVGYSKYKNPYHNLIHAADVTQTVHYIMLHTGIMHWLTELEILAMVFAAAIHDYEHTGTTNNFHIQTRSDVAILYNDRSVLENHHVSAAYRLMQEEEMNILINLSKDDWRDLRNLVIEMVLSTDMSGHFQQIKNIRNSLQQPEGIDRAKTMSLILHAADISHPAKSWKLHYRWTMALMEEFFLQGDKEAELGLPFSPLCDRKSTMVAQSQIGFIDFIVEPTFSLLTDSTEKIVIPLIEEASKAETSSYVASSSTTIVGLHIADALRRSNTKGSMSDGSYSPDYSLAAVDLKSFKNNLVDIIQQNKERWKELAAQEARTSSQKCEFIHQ
From the text: as §1

PDE1C = PDE1C (Homo sapiens (Human), UniProt Q14123); test: biochemical
PDE1C, sequence (Q14123 whole entry): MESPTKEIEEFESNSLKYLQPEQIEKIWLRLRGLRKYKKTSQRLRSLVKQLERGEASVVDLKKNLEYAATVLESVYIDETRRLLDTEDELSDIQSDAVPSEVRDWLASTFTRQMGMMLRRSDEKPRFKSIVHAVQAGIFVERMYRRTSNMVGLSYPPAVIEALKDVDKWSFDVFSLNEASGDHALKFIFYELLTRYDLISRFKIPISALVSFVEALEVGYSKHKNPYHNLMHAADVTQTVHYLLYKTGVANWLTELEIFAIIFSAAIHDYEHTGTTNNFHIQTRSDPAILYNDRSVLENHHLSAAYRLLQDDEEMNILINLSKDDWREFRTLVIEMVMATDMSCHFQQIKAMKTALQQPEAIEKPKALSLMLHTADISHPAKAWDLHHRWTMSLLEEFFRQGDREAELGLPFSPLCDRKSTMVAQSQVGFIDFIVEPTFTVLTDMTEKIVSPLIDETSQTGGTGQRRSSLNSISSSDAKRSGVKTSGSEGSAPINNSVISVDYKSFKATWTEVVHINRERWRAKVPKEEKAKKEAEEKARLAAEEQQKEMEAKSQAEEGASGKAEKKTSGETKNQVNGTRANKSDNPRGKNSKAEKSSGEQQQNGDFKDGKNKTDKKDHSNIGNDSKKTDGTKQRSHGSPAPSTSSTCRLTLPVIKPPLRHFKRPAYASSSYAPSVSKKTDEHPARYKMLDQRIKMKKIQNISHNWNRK
From the text: as §1

[1] = 15 nM tritium labelled cAMP, 1 hr at room temperature, SPA beads

PDE1B, sequence (Q01064 whole entry): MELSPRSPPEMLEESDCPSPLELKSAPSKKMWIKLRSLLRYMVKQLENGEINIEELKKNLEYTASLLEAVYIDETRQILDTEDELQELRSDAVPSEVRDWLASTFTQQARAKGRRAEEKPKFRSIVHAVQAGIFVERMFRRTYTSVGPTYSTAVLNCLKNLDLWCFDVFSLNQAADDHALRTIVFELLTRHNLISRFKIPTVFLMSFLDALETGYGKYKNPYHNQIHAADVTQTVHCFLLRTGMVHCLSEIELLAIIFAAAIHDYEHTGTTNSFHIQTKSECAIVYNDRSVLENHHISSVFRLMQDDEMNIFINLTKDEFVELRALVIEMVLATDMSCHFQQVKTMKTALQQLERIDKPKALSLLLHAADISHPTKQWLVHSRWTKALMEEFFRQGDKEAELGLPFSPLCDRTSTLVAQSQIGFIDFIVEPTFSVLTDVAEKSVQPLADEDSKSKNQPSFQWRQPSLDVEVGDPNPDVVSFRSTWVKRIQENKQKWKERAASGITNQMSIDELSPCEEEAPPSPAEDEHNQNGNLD

Row | SMILES | IC50 (PDE1B; read-out: PDE1B, IC50) [nM] | IC50 (PDE1A; [1]) [nM] | IC50 (PDE1C; [1]) [nM] | IC50 (PDE1B; PDE1B, IC50 (nM)) [nM] | IC50 (PDE1A) [nM] | IC50 (PDE1C) [nM]
1 | CCOc1ncccc1-c1cc(NCc2ccn(C)n2)c2c(cnn2C(C)C)n1 [Example 19, 5-(2-ethoxypyridin-3-yl)-1-isopropyl-N-((1-methyl-1H-pyrazol-3-yl)methyl)-1H-pyrazolo[4,3-b]pyridin-7-amine] | 4.6 | 66 | 150 |  |  | 
2 | [2H]C([2H])([2H])COc1ncccc1-c1cc(NCc2cccnc2OC)c2c(n1)c(C)nn2C(C)C [Example 182, 5-(2-(ethoxy-2,2,2-d3)pyridin-3-yl)-1-isopropyl-N-((2-methoxypyridin-3-yl)methyl)-3-methyl-1H-pyrazolo[4,3-b]pyridin-7-amine] |  |  |  | 1.1 | 24 | 61
3 | CCOc1ncccc1-c1cc(NCc2nnc(C)s2)c2c(n1)c(C)nn2C(C)C [Example 33, 5-(2-ethoxy-3-pyridyl)-1-isopropyl-3-methyl-N-[(5-methyl-1,3,4-thiadiazol-2-yl)methyl]pyrazolo[4,3-b]pyridin-7-amine] | 0.41 | 1.6 | 7.9 |  |  | 
4 | CCOc1ncccc1-c1cc(CNc2cncc(OC)c2)c2c(n1)c(C)nn2C(C)C [Example 157, N-[[5-(2-ethoxy-3-pyridyl)-1-isopropyl-3-methyl-pyrazolo[4,3-b]pyridin-7-yl]methyl]-5-methoxy-pyridin-3-amine] | 14 | 34 | 77 |  |  | 
5 | CCOc1ncccc1-c1cc(NCc2ncn(C)n2)c2c(cnn2C(C)CC)n1 (single isomer, unassigned) [Example 141, 5-(2-ethoxy-3-pyridyl)-1-[1-methylpropyl]-N-[(1-methyl-1,2,4-triazol-3-yl)methyl]pyrazolo[4,3-b]pyridin-7-amine] |  | 44 |  | 2.2 |  | 76
6 | CCOc1ncccc1-c1cc(NCc2cn(C)c(C)n2)c2c(n1)c(C)nn2C(C)C [Example 51, N-((1,2-dimethyl-1H-imidazol-4-yl)methyl)-5-(2-ethoxypyridin-3-yl)-1-isopropyl-3-methyl-1H-pyrazolo[4,3-b]pyridin-7-amine 2,2,2-trifluoroacetate] | 9.1 | 53 | 88 |  |  | 
7 | CCOc1ncccc1-c1cc(NCc2ncc(C)s2)c2c(n1)c(C)nn2C(C)C [Example 2, 5-(2-ethoxy-3-pyridyl)-1-isopropyl-3-methyl-N-[(5-methylthiazol-2-yl)methyl]pyrazolo[4,3-b]pyridin-7-amine] | 0.071 | 0.46 | 4.9 |  |  | 
8 | CCOc1ncccc1-c1cc(NCc2ncon2)c2c(n1)c(C)nn2C(C)C [Example 53, 5-(2-ethoxy-3-pyridyl)-1-isopropyl-3-methyl-N-(1,2,4-oxadiazol-3-ylmethyl)pyrazolo[4,3-b]pyridin-7-amine] | 0.89 | 9.3 | 17 |  |  | 
9 | CCOc1ncccc1-c1cc(NCc2n[nH]c(C)n2)c2c(n1)c(C)nn2C(C)C [Example 55, 5-(2-ethoxy-3-pyridyl)-1-isopropyl-3-methyl-N-[(5-methyl-1H-1,2,4-triazol-3-yl)methyl]pyrazolo[4,3-b]pyridin-7-amine] | 0.51 | 3.4 | 5.5 |  |  | 
10 | CCOc1ncccc1-c1cc(NCc2cccnc2C)c2c(n1)c(C)nn2C(C)C [Example 84, 5-(2-ethoxy-3-pyridyl)-1-isopropyl-3-methyl-N-[(2-methyl-3-pyridyl)methyl]pyrazolo[4,3-b]pyridin-7-amine] | 1.8 | 19 | 23 |  |  | 
11 | [2H]C([2H])(C)Oc1ncccc1-c1cc(NCc2cccnc2OC)c2c(n1)c(C)nn2C(C)C [Example 180, 5-(2-(ethoxy-1,1-d2)pyridin-3-yl)-1-isopropyl-N-((2-methoxypyridin-3-yl)methyl)-3-methyl-1H-pyrazolo[4,3-b]pyridin-7-amine] |  |  |  | 0.77 | 27 | 78
12 | CCOc1ncccc1-c1cc(NCc2cccc(C)c2)c2c(cnn2C(C)C)n1 [Example 23, 5-(2-ethoxy-3-pyridyl)-1-isopropyl-N-(m-tolylmethyl)pyrazolo[4,3-b]pyridin-7-amine] | 38 | 240 | 750 |  |  | 
13 | CCOc1ncccc1-c1cc(NCc2cnn(C)c2)c2c(n1)c(C)nn2C1CC1 [Example 12, 1-cyclopropyl-5-(2-ethoxy-3-pyridyl)-3-methyl-N-[(1-methylpyrazol-4-yl)methyl]pyrazolo[4,3-b]pyridin-7-amine] | 60 | 200 | 690 |  |  | 
14 | CCOc1ncccc1-c1cc(NCc2ccnc(C)n2)c2c(n1)c(C)nn2C(C)C [Example 105, 5-(2-ethoxy-3-pyridyl)-1-isopropyl-3-methyl-N-[(2-methylpyrimidin-4-yl)methyl]pyrazolo[4,3-b]pyridin-7-amine] | 12 | 54 | 150 |  |  | 
15 | CCOc1ncccc1-c1cc(NCc2cccnc2F)c2c(n1)c(C)nn2C(C)C [Example 85, 5-(2-ethoxy-3-pyridyl)-N-[(2-fluoro-3-pyridyl)methyl]-1-isopropyl-3-methyl-pyrazolo[4,3-b]pyridin-7-amine] | 0.22 | 8.4 | 27 |  |  | 
16 | CCOc1ncccc1-c1cc(NCc2cnn(C)n2)c2c(n1)c(C)nn2C(C)C [Example 5, 5-(2-ethoxy-3-pyridyl)-1-isopropyl-3-methyl-N-[(2-methyltriazol-4-yl)methyl]pyrazolo[4,3-b]pyridin-7-amine] | 1.8 | 11 | 28 |  |  | 
17 | CCOc1ncccc1-c1cc(NCc2c[nH]cn2)c2c(n1)c(C)nn2C(C)C [Example 40, 5-(2-ethoxy-3-pyridyl)-N-(1H-imidazol-4-ylmethyl)-1-isopropyl-3-methyl-pyrazolo[4,3-b]pyridin-7-amine] | 1 | 14 | 32 |  |  | 
18 | CCOc1ncccc1-c1cc(NCc2ccc(C)nc2)c2c(n1)c(C)nn2C(C)C [Example 87, 5-(2-ethoxy-3-pyridyl)-1-isopropyl-3-methyl-N-[(6-methyl-3-pyridyl)methyl]pyrazolo[4,3-b]pyridin-7-amine] | 0.95 | 6.3 | 13 |  |  | 
19 | Cc1nn(C(C)C)c2c(NCc3cnn(C)c3)cc(-c3cccnc3OC(C)C)nc12 [Example 97, 5-(2-isopropoxy-3-pyridyl)-1-isopropyl-3-methyl-N-[(1-methylpyrazol-4-yl)methyl]pyrazolo[4,3-b]pyridin-7-amine] | 0.6 | 1.4 | 9.1 |  |  | 
20 | CCOc1ncccc1-c1cc(NCc2c[nH]cn2)c2c(n1)c(C)nn2C(C)CC (single isomer, unassigned) [Example 130, 5-(2-ethoxy-3-pyridyl)-N-(1H-imidazol-4-ylmethyl)-3-methyl-1-[1-methylpropyl]pyrazolo[4,3-b]pyridin-7-amine] |  | 11 | 25 | 0.86 |  | 
21 | CCOc1ncccc1-c1cc(NCc2cnn(CC)c2)c2c(n1)c(C)nn2C(C)C [Example 109, 5-(2-ethoxy-3-pyridyl)-N-[(1-ethylpyrazol-4-yl)methyl]-1-isopropyl-3-methyl-pyrazolo[4,3-b]pyridin-7-amine] | 0.66 | 4.9 | 11 |  |  | 
22 | CCOc1ncccc1-c1cc(NCc2cccc(C(F)(F)F)n2)c2c(n1)c(C)nn2C(C)C [Example 107, 5-(2-ethoxy-3-pyridyl)-1-isopropyl-3-methyl-N-[[6-(trifluoromethyl)-2-pyridyl]methyl]pyrazolo[4,3-b]pyridin-7-amine] | 5.6 | 110 | 170 |  |  | 
23 | CCOc1ncccc1-c1cc(NCc2cccc(OC)n2)c2c(n1)c(C)nn2C(C)C [Example 102, 5-(2-ethoxy-3-pyridyl)-1-isopropyl-N-[(6-methoxy-2-pyridyl)methyl]-3-methyl-pyrazolo[4,3-b]pyridin-7-amine] | 0.73 | 8 | 34 |  |  | 
24 | Cc1nn(C(C)C)c2c(NCc3cnn(C)c3)cc(-c3nccs3)nc12 [Example 147, 1-isopropyl-3-methyl-N-[(1-methylpyrazol-4-yl)methyl]-5-thiazol-2-yl-pyrazolo[4,3-b]pyridin-7-amine] | 2.1 | 12 | 28 |  |  | 
25 | CCOc1ncccc1-c1cc(NCc2cnccc2OC)c2c(n1)c(C)nn2C(C)C [Example 92, 5-(2-ethoxy-3-pyridyl)-1-isopropyl-N-[(4-methoxy-3-pyridyl)methyl]-3-methyl-pyrazolo[4,3-b]pyridin-7-amine] | 2.7 | 47 | 110 |  |  | 
26 | CCOc1ncccc1-c1cc(NCc2cnc(C)s2)c2c(n1)c(C)nn2C(C)C [Example 32, 5-(2-ethoxy-3-pyridyl)-1-isopropyl-3-methyl-N-[(2-methylthiazol-5-yl)methyl]pyrazolo[4,3-b]pyridin-7-amine] | 0.14 | 4.6 | 6.2 |  |  | 
27 | CCOc1ncccc1-c1cc(NCc2cccnc2OC)c2c(n1)c(C)nn2C(C)C [Example 86, 5-(2-ethoxy-3-pyridyl)-1-isopropyl-N-[(2-methoxy-3-pyridyl)methyl]-3-methyl-pyrazolo[4,3-b]pyridin-7-amine] | 0.36 | 20 | 68 |  |  | 
28 | CCOc1ncccc1-c1cc(NCc2nccn2C)c2c(cnn2C(C)C)n1 [Example 17, 5-(2-ethoxy-3-pyridyl)-1-isopropyl-N-[(1-methylimidazol-2-yl)methyl]pyrazolo[4,3-b]pyridin-7-amine] | 54 | 700 | 970 |  |  | 
